Experimental data as given in the NIST ThermoML archive (doi:10.1016/j.jct.2010.08.019).
± gives the expanded uncertainty stated by the source.

Experiment: xn = mol fraction of the nth substance listed
Conditions: for surface tension liquid-gas: Wilhelmy-plate method; for viscosity / mass density: 101 kPa, Liquid; for viscosity: Falling or rolling sphere viscometry; for mass density: Vibrating tube method

C1CCOCC1 [tetrahydropyran] + CC(C)O
Conditions	mass density [kg/m3]	surface tension liquid-gas [mN/m]	viscosity [mPa·s]
293.15 K, x2 = 0	884.27 ± 0.23	27.5 ± 0.4	0.86 ± 0.011
293.15 K, x2 = 0.0501	879.89 ± 0.23	27.2 ± 0.4	0.852 ± 0.011
293.15 K, x2 = 0.0999	875.5 ± 0.22	26.9 ± 0.4	0.845 ± 0.011
293.15 K, x2 = 0.1499	871.09 ± 0.21	26.6 ± 0.4	0.849 ± 0.011
293.15 K, x2 = 0.2003	866.62 ± 0.21	26.3 ± 0.4	0.85 ± 0.011
293.15 K, x2 = 0.2506	862.13 ± 0.2	26 ± 0.4	0.855 ± 0.011
293.15 K, x2 = 0.2999	857.7 ± 0.2	25.7 ± 0.4	0.864 ± 0.011
293.15 K, x2 = 0.35	853.13 ± 0.19	25.4 ± 0.4	0.877 ± 0.011
293.15 K, x2 = 0.3999	848.52 ± 0.19	25 ± 0.4	0.899 ± 0.011
293.15 K, x2 = 0.4499	843.87 ± 0.18	24.7 ± 0.4	0.922 ± 0.011
293.15 K, x2 = 0.5001	839.07 ± 0.18	24.4 ± 0.4	0.947 ± 0.011
293.15 K, x2 = 0.5502	834.22 ± 0.17	24 ± 0.4	0.983 ± 0.011
293.15 K, x2 = 0.6001	829.28 ± 0.17	23.7 ± 0.4	1.032 ± 0.012
293.15 K, x2 = 0.6499	824.23 ± 0.17	23.4 ± 0.4	1.095 ± 0.012
293.15 K, x2 = 0.7001	819.03 ± 0.16	23.1 ± 0.4	1.164 ± 0.012
293.15 K, x2 = 0.7499	813.78 ± 0.16	22.7 ± 0.4	1.256 ± 0.013
293.15 K, x2 = 0.8	808.34 ± 0.16	22.4 ± 0.4	1.378 ± 0.014
293.15 K, x2 = 0.8501	802.8 ± 0.16	22.1 ± 0.4	1.535 ± 0.015
293.15 K, x2 = 0.9001	797.15 ± 0.15	21.9 ± 0.4	1.739 ± 0.016
293.15 K, x2 = 0.9499	791.36 ± 0.15	21.6 ± 0.4	2.013 ± 0.018
303.15 K, x2 = 0	874.07 ± 0.23	26.2 ± 0.4	0.749 ± 0.01
303.15 K, x2 = 0.0502	869.6 ± 0.23	26 ± 0.4	0.737 ± 0.01
303.15 K, x2 = 0.1001	865.24 ± 0.22	25.7 ± 0.4	0.729 ± 0.01
303.15 K, x2 = 0.1501	860.87 ± 0.22	25.4 ± 0.4	0.728 ± 0.01
303.15 K, x2 = 0.1998	856.52 ± 0.21	25.1 ± 0.4	0.725 ± 0.01
303.15 K, x2 = 0.2499	852.09 ± 0.2	24.8 ± 0.4	0.729 ± 0.01
303.15 K, x2 = 0.3	847.66 ± 0.2	24.5 ± 0.4	0.737 ± 0.01
303.15 K, x2 = 0.3499	843.17 ± 0.19	24.2 ± 0.4	0.75 ± 0.01
303.15 K, x2 = 0.4001	838.59 ± 0.19	23.9 ± 0.4	0.76 ± 0.01
303.15 K, x2 = 0.4501	833.98 ± 0.18	23.6 ± 0.4	0.779 ± 0.01
303.15 K, x2 = 0.5001	829.29 ± 0.18	23.3 ± 0.4	0.8 ± 0.01
303.15 K, x2 = 0.55	824.54 ± 0.18	22.9 ± 0.4	0.825 ± 0.01
303.15 K, x2 = 0.6	819.65 ± 0.17	22.6 ± 0.4	0.861 ± 0.011
303.15 K, x2 = 0.65	814.69 ± 0.17	22.3 ± 0.4	0.905 ± 0.011
303.15 K, x2 = 0.6999	809.62 ± 0.17	22 ± 0.4	0.958 ± 0.011
303.15 K, x2 = 0.7499	804.47 ± 0.16	21.7 ± 0.4	1.021 ± 0.011
303.15 K, x2 = 0.8001	799.17 ± 0.16	21.4 ± 0.4	1.108 ± 0.012
303.15 K, x2 = 0.85	793.77 ± 0.16	21.2 ± 0.4	1.214 ± 0.013
303.15 K, x2 = 0.8998	788.25 ± 0.16	20.9 ± 0.4	1.356 ± 0.014
303.15 K, x2 = 0.9499	782.59 ± 0.16	20.6 ± 0.4	1.533 ± 0.015
313.15 K, x2 = 0	863.76 ± 0.47	25.1 ± 0.4	0.658 ± 0.01
313.15 K, x2 = 0.05	859.32 ± 0.46	24.9 ± 0.4	0.645 ± 0.01
313.15 K, x2 = 0.1	854.97 ± 0.45	24.6 ± 0.4	0.639 ± 0.01
313.15 K, x2 = 0.1501	850.64 ± 0.44	24.3 ± 0.4	0.634 ± 0.01
313.15 K, x2 = 0.2	846.27 ± 0.42	24.1 ± 0.4	0.633 ± 0.01
313.15 K, x2 = 0.2499	841.92 ± 0.41	23.8 ± 0.4	0.635 ± 0.01
313.15 K, x2 = 0.2997	837.55 ± 0.39	23.5 ± 0.4	0.638 ± 0.01
313.15 K, x2 = 0.3499	833.09 ± 0.38	23.2 ± 0.4	0.646 ± 0.01
313.15 K, x2 = 0.4	828.58 ± 0.36	22.9 ± 0.4	0.656 ± 0.01
313.15 K, x2 = 0.4504	823.98 ± 0.34	22.6 ± 0.4	0.667 ± 0.01
313.15 K, x2 = 0.5001	819.37 ± 0.33	22.3 ± 0.4	0.682 ± 0.01
313.15 K, x2 = 0.55	814.68 ± 0.31	22 ± 0.4	0.704 ± 0.01
313.15 K, x2 = 0.5999	809.9 ± 0.29	21.7 ± 0.4	0.725 ± 0.01
313.15 K, x2 = 0.65	805.04 ± 0.28	21.4 ± 0.4	0.758 ± 0.01
313.15 K, x2 = 0.7001	800.07 ± 0.26	21.1 ± 0.4	0.796 ± 0.01
313.15 K, x2 = 0.7502	794.95 ± 0.24	20.8 ± 0.4	0.844 ± 0.011
313.15 K, x2 = 0.7999	789.8 ± 0.22	20.6 ± 0.4	0.901 ± 0.011
313.15 K, x2 = 0.85	784.49 ± 0.2	20.3 ± 0.4	0.976 ± 0.011
313.15 K, x2 = 0.8998	779.1 ± 0.18	20.1 ± 0.4	1.069 ± 0.012
313.15 K, x2 = 0.9498	773.58 ± 0.17	19.8 ± 0.4	1.187 ± 0.012
323.15 K, x2 = 0	666.8 ± 0.83	23.8 ± 0.4	0.565 ± 0.009
323.15 K, x2 = 0.05	–	23.5 ± 0.4	0.562 ± 0.009
323.15 K, x2 = 0.0501	667.65 ± 0.8	–	–
323.15 K, x2 = 0.1	669.08 ± 0.78	23.3 ± 0.4	0.558 ± 0.009
323.15 K, x2 = 0.15	670.98 ± 0.76	–	–
323.15 K, x2 = 0.1501	–	23.1 ± 0.4	0.553 ± 0.009
323.15 K, x2 = 0.1998	673.08 ± 0.73	–	–
323.15 K, x2 = 0.2	–	22.8 ± 0.4	0.55 ± 0.009
323.15 K, x2 = 0.2499	–	22.6 ± 0.4	0.55 ± 0.009
323.15 K, x2 = 0.25	675.42 ± 0.7	–	–
323.15 K, x2 = 0.2997	–	22.3 ± 0.4	0.553 ± 0.009
323.15 K, x2 = 0.3	677.99 ± 0.68	–	–
323.15 K, x2 = 0.3499	–	22 ± 0.4	0.557 ± 0.009
323.15 K, x2 = 0.35	680.86 ± 0.65	–	–
323.15 K, x2 = 0.4	683.93 ± 0.62	21.8 ± 0.4	0.563 ± 0.009
323.15 K, x2 = 0.4499	687.34 ± 0.58	–	–
323.15 K, x2 = 0.4504	–	21.5 ± 0.4	0.571 ± 0.009
323.15 K, x2 = 0.5	691.07 ± 0.55	–	–
323.15 K, x2 = 0.5001	–	21.2 ± 0.4	0.582 ± 0.009
323.15 K, x2 = 0.5501	695.17 ± 0.52	20.9 ± 0.4	0.596 ± 0.009
323.15 K, x2 = 0.6	699.74 ± 0.48	20.7 ± 0.4	0.615 ± 0.009
323.15 K, x2 = 0.65	704.78 ± 0.44	20.4 ± 0.4	0.635 ± 0.01
323.15 K, x2 = 0.6999	–	20.1 ± 0.4	0.661 ± 0.01
323.15 K, x2 = 0.7	710.22 ± 0.4	–	–
323.15 K, x2 = 0.7499	716.22 ± 0.36	–	–
323.15 K, x2 = 0.7502	–	19.9 ± 0.4	0.697 ± 0.01
323.15 K, x2 = 0.7999	722.88 ± 0.32	–	–
323.15 K, x2 = 0.8002	–	19.6 ± 0.4	0.739 ± 0.01
323.15 K, x2 = 0.85	730.48 ± 0.28	–	–
323.15 K, x2 = 0.8501	–	19.4 ± 0.4	0.79 ± 0.01
323.15 K, x2 = 0.8998	–	19.2 ± 0.4	0.85 ± 0.011
323.15 K, x2 = 0.9	738.82 ± 0.23	–	–
323.15 K, x2 = 0.95	748.16 ± 0.19	–	–
323.15 K, x2 = 0.9501	–	19 ± 0.4	0.927 ± 0.011
